Test results published in patent US12606528B2, “Methods and materials for inhibiting NF-kB activity” (University of Pittsburgh - Of the Commonwealth System of …, priority 2019, dated 2026).
Like-named read-outs stand apart in the source and are kept apart here.

Legend:
[1] = test system: TNF release; assay: TNF assay: TNF release from LPS-stimulated human PBMCs (TNF ELISA); format: cell-based; settings: PBMC, read-out: IC50 (TNF assay)
How it was run: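 TNF ELISA on supernatants read-out; cells were 10k human PBMCs/well given LPS at 10 ng/mL for 18 h after a 2 h compound pre-incubation across a concentration series, with IC50 derived for suppression of TNF secretion.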

[2] = test system: NF-κB; assay: NF-κB assay: THP1-NF-κB-LUC cells, LPS-stimulated secreted luciferase; format: cell-based; settings: THP1-NF-κB-LUC cells, read-out: IC50 (NF-κB assay)
How it was run: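 THP1-NF-κB-LUC cells (25k/well) were pretreated with compounds for 2 h, then stimulated with LPS (10 ng/mL) for 18 h. Secreted luciferase was measured and normalized to vehicle, and IC50 was fitted from the concentration series.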

[3] = LPS-stimulated human PBMCs, TNF ELISA
[4] = human PBMCs, compounds 2 hours before LPS (10 ng/ml) for 18 hours, supernatant TNF ELISA
[5] = compounds 2 hours before LPS (10 ng/mL) for 18 hours, secreted luciferase

Compound	IC50 [1, 3]	IC50 ([2]; LPS-stimulated)	IC50 [1, 4]	IC50 [2, 5]
Fc1ccc(-c2nc3ccc(-c4nncn4CCN4CCOCC4)cc3nc2-c2ccc(F)cc2)cc1 [BC19306]	> 10 µM	0.1 to 1 µM	–	–
CC1Oc2cc(S(=O)(=O)Nc3ccc(Cl)cc3)c(Br)cc2N(C)C1=O (centres unmarked) [BC19792]	–	–	> 10 µM	1 to 10 µM
CC1Oc2c(cc(Br)cc2S(=O)(=O)NC2CCC(C(C)(C)C)CC2)NC1=O (centres unmarked) [BC19367]	–	–	> 10 µM	> 10 µM
Cc1noc(-c2ccc3nc(-c4ccc(F)cc4)c(-c4ccc(F)cc4)nc3c2)n1 [BC19193]	> 10 µM	0.1 to 1 µM	–	–
CCc1cccc(NS(=O)(=O)c2cc(S(C)(=O)=O)cc3c2OCC(=O)N3)c1 [BC19487]	–	–	> 10 µM	0.1 to 1 µM
CCc1ccc(NS(=O)(=O)c2cc(Cl)cc3c2OC(C)C(=O)N3)cc1 (centres unmarked) [BC19703]	–	–	> 10 µM	< 0.1 µM
CCc1ccc(-c2nc3cc(C(=O)N4CCN(C)CC4)ccc3nc2-c2ccc(F)cc2)cc1 [BC19319]	> 10 µM	1 to 10 µM	–	–
O=S(=O)(CC1CC1)c1[nH]c(-c2ccccc2)nc1S(=O)(=O)c1ccc(Cl)cc1 [BC19467]	1 to 10 µM	1 to 10 µM	–	–
CC(C)CC1Oc2cc(S(=O)(=O)Nc3ccc(F)c(F)c3)c(Br)cc2NC1=O (centres unmarked) [BC19760]	–	–	> 10 µM	< 0.1 µM
CCNS(=O)(=O)c1cc(Cl)cc2c1OC(C)C(=O)N2 (centres unmarked) [BC19294]	–	–	> 10 µM	1 to 10 µM
N#Cc1ccc(NS(=O)(=O)c2cc(Br)cc3c2OCCNC3=O)cc1 [BC19615]	> 10 µM	0.1 to 1 µM	–	–
Cn1c(-c2ccccc2)nc(S(=O)(=O)c2ccc(F)cc2)c1[S+]([O-])CC1CC1 (centres unmarked) [BC19602]	> 10 µM	> 10 µM	–	–
CCC1Oc2cc(S(=O)(=O)NCc3ccc(F)cc3F)c(Br)cc2NC1=O (centres unmarked) [BC19368]	–	–	> 10 µM	> 10 µM
CCC1Oc2cc(S(=O)(=O)Nc3ccc(C)c(Cl)c3)c(Br)cc2N(C)C1=O (centres unmarked) [BC19938]	–	–	1 to 10 µM	0.1 to 1 µM
COCCS(=O)(=O)c1sc(-c2ccc(Cl)cc2)nc1S(=O)(=O)c1ccc(F)cc1 [BC19541]	1 to 10 µM	1 to 10 µM	–	–
O=C1COc2cc(S(=O)(=O)Nc3ccc(Cl)cc3)c(Cl)cc2N1 [BC19133]	–	–	> 10 µM	< 0.1 µM
O=C1COc2c(cc(Br)cc2S(=O)(=O)NCc2ccc(OC(F)(F)F)cc2)N1 [BC19385]	–	–	> 10 µM	> 10 µM
O=C1CCOc2c(cc(Br)cc2S(=O)(=O)Nc2ccc(Cl)cc2)N1 [BC19685]	1 to 10 µM	< 0.1 µM	–	–
CCCS(=O)(=O)c1sc(C2CCCCC2)nc1S(=O)(=O)c1ccc(Cl)cc1 [BC19646]	> 10 µM	> 10 µM	–	–
CN1CCN(CCNC(=O)Nc2ccc3nc(-c4ccc(F)cc4)c(-c4ccc(F)cc4)nc3c2)CC1 [BC19616]	1 to 10 µM	0.1 to 1 µM	–	–
CCc1ccc(NS(=O)(=O)c2cc(Br)cc3c2OCCNC3=O)cc1 [BC19604]	> 10 µM	1 to 10 µM	–	–
CC(=O)N1C[C@@H](S(=O)(=O)c2ccc(F)cc2)[C@H](S(=O)(=O)C(C)C)C1 (racemic) [BC19670]	1 to 10 µM	1 to 10 µM	–	–
CCc1ccc(NS(=O)(=O)c2cc3c(cc2Cl)NC(=O)C(C)O3)cc1 (centres unmarked) [BC19702]	–	–	> 10 µM	< 0.1 µM
CN(C)CCNS(=O)(=O)c1ccc2nc(-c3ccc(F)cc3)c(-c3ccc(F)cc3)nc2c1 [BC19555]	1 to 10 µM	< 0.1 µM	–	–
CC1Oc2cc(S(=O)(=O)Nc3cccc(F)c3)c(Cl)cc2NC1=O (centres unmarked) [BC19713]	–	–	1 to 10 µM	0.1 to 1 µM
Cc1ccc(S(=O)(=O)c2c(O)[nH]c3ncccc3c2=O)cc1 [BC19258]	–	–	> 10 µM	1 to 10 µM

Compound	IC50 [1, 3]	IC50 ([2]; LPS-stimulated)	IC50 [1, 4]	IC50 [2, 5]
CC(C)CC1Oc2c(cc(Br)cc2S(=O)(=O)Nc2ccc(F)c(F)c2)NC1=O (centres unmarked) [BC19759]	–	–	> 10 µM	< 0.1 µM
CC(C)[S+]([O-])c1c(S(=O)(=O)c2ccc(F)cc2)nc(-c2ccccc2)n1C (centres unmarked) [BC19601]	> 10 µM	> 10 µM	–	–
CC(C)CS(=O)(=O)c1sc(-c2ccccc2)nc1S(=O)(=O)c1ccc(Cl)cc1 [BC19473]	> 10 µM	> 10 µM	–	–
CCc1cccc(NS(=O)(=O)c2cc3c(cc2Br)NC(=O)C(C)O3)c1 (centres unmarked) [BC19283]	–	–	> 10 µM	0.1 to 1 µM
CN1CCN(C(=O)c2ccc3nc(-c4ccc(F)cc4)c(Nc4ccc(F)cc4)nc3c2)CC1 [BC19578]	> 10 µM	> 10 µM	–	–
O=S(=O)(c1ccccc1)c1ccn(-c2ccccc2)n1 [BC19205]	> 10 µM	1 to 10 µM	–	–
CC1Oc2c(cc(Cl)cc2S(=O)(=O)Nc2cccc(Cl)c2)NC1=O (centres unmarked) [BC19716]	–	–	1 to 10 µM	< 0.1 µM
CNc1ncc(-c2ccc3nc(-c4ccc(F)cc4)c(-c4ccc(F)cc4)nc3c2)o1 [BC19619]	> 10 µM	1 to 10 µM	–	–
CCC1Oc2c(cc(Br)cc2S(=O)(=O)Nc2ccc(OC(F)(F)F)cc2)N(C)C1=O (centres unmarked) [BC19921]	–	–	1 to 10 µM	< 0.1 µM
CCC1Oc2cc(S(=O)(=O)NCc3ccccc3)c(Br)cc2NC1=O (centres unmarked) [BC19287]	–	–	> 10 µM	1 to 10 µM
CC(C)S(=O)(=O)[C@H]1CN(C2CCOCC2)C[C@@H]1S(=O)(=O)c1ccc(F)cc1 (racemic) [BC19684]	> 10 µM	> 10 µM	–	–
O=S(=O)(c1ccc(Cl)cc1)c1nc(-c2ccc(F)cc2)sc1[S+]([O-])CC1CC1 (centres unmarked) [BC19416]	> 10 µM	> 10 µM	–	–
CN1CCOc2cc(-c3ccc4nc(-c5ccc(F)cc5)c(-c5ccc(F)cc5)nc4c3)ccc21 [BC19244]	> 10 µM	> 10 µM	–	–
CC(C)(C)C1CCC(NS(=O)(=O)c2cc(Br)cc3c2OCC(=O)N3)CC1 (centres unmarked) [BC19380]	–	–	> 10 µM	> 10 µM
CN(C)c1cccc(-c2nc3ccc(C(=O)NCCN4CCOCC4)cc3nc2-c2cccc(N(C)C)c2)c1 [BC19501]	> 10 µM	> 10 µM	–	–
CC1Oc2c(cc(Br)cc2S(=O)(=O)Nc2cccc(Cl)c2)N(C)C1=O (centres unmarked) [BC19904]	–	–	> 10 µM	< 0.1 µM
Cc1ccc(NS(=O)(=O)c2c(C)c(Cl)cc3c2OCC(=O)N3)cc1 [BC19432]	–	–	> 10 µM	0.1 to 1 µM
CNC(=O)N1CCC(C(=O)Nc2ccc3nc(-c4ccc(F)cc4)c(-c4ccc(F)cc4)nc3c2)CC1 [BC19311]	> 10 µM	< 0.1 µM	–	–
CCC1Oc2c(cc(Br)cc2S(=O)(=O)Nc2cccc(Cl)c2)NC1=O (centres unmarked) [BC19232]	–	–	> 10 µM	< 0.1 µM
Cc1ccc(S(=O)(=O)c2nc3cc(C(=O)N4CCN(C)CC4)ccc3nc2-c2ccc(F)cc2)cc1 [BC19308]	< 0.1 µM	0.1 to 1 µM	–	–
COCCNC(=O)N1c2cc(S(=O)(=O)N3CCCC3)ccc2NC(=O)C1C (centres unmarked) [BC19299]	> 10 µM	1 to 10 µM	–	–
CCC1Oc2c(cc(Br)cc2S(=O)(=O)Nc2ccc(OC)cc2)N(C)C1=O (centres unmarked) [BC19935]	–	–	1 to 10 µM	< 0.1 µM
CCS(=O)(=O)c1cc2c(c(S(=O)(=O)Nc3cccc(Cl)c3)c1)OCC(=O)N2 [BC19441]	–	–	> 10 µM	< 0.1 µM
CC(C)Sc1snc(-c2ccc(F)cc2)c1S(=O)(=O)c1ccc(Cl)cc1 [BC19726]	> 10 µM	> 10 µM	–	–
CS(=O)(=O)c1cc2c(c(S(=O)(=O)Nc3ccc(F)cc3)c1)OCC(=O)N2 [BC19430]	–	–	> 10 µM	< 0.1 µM
CC(C)[S+]([O-])c1sc(-c2ccc(Cl)cc2)nc1S(=O)(=O)c1ccc(F)cc1 (centres unmarked) [BC19537]	> 10 µM	> 10 µM	–	–
